# Data published in patent US11002524B2, “Cyclic compounds and process for the preparation thereof” (Council of Scientific & Industrial Research, priority 2016, dated 2021).
# Read-outs that look alike come from different tables or passages of the source.
# System: Salmonella enterica strain AMC (ATCC #6539)
# Assay: Antibacterial MIC assay (Promega BacTiter-Glo microbial cell viability assay)
# Type: cell-based
# Procedure: (§1) The minimum inhibitory concentrations (MICs) are determined using the Promega Bac Titer-Glo microbial cell viability assay, which measures cell viability by quantitation of ATP present, an indicator of metabolic activity of cells. The assays are carried out using Salmonella enterica strain AMC (ATCC #6539), Inocula of S. enterica are prepared from 12-h broth cultures grown in Mueller Hinton broth and the suspensions were then adjusted to a turbidity of 0.5 McFarland. […] Bacterial cells are treated with hunanamycin analogs for 24 hours at ranges from 0.4 to 40 μg/mL and ciprofloxacin as a control ranging from 0.03 to 10 μg/mL. The OD600 is measured using an Envision multi-modal plate reader (Perkin-Elmer, Inc.).
# as §1, with “(MICs) were” for “(MICs) are”, “assays were” for “assays are”, “enterica were” for “enterica are”, “cells were” for “cells are”, “OD600 was” for “OD600 is”, “Inc.). The antibiotic assays were performed in Prof. John B. MacMillan's lab, Department of Biochemistry, University of Texas Southwestern Medical Center at Dallas, USA.” for “Inc.).”
# [1] = S. enterica AMC ATCC #6539, 24 hours treatment, 0.4 to 40 μg/mL, Mueller Hinton broth, Table 1 in Example 9
# [2] = Salmonella enterica, ATCC6539, S. enterica AMC ATCC #6539, 24 hours treatment, 0.4 to 40 μg/mL, Mueller Hinton broth, Table 1 in description, read-out: MIC
SMILES,MIC [1],MIC [2],"MIC (Salmonella enterica, ATCC6539, 24 h)"
"CC(C)=CCn1c(=O)c(=O)n(C[C@H](O)[C@H](O)[C@H](O)CO)c2cc(C)c(C)cc21 [Compound 3, 6,7-dimethyl-1-(3-methylbut-2-en-1-yl)-4-((2S,3S,4R)-2,3,4,5-tetrahydroxypentyl)-1,4-dihydroquinoxaline-2,3-dione]",16 mg/L,16 mg/L,–
"CCn1c(=O)c(=O)n(C[C@H](O)[C@H](O)[C@H](O)CO)c2cc(C)c(C)cc21 [Compound 5, 1-ethyl-6,7-dimethyl-4-((2S,3S,4R)-2,3,4,5-tetrahydroxypentyl)-1,4-dihydroquinoxaline-2,3-dione]",>32 mg/L,> 32 mg/L,–
"C=CCn1c(=O)c(=O)n(C[C@H](O)[C@H](O)[C@H](O)CO)c2cc(C)c(C)cc21 [Compound 4, 1-allyl-6,7-dimethyl-4-((2S,3S,4R)-2,3,4,5-tetrahydroxypentyl)-1,4-dihydroquinoxaline-2,3-dione]",16 mg/L,16 mg/L,–
"CCOC(=O)Cn1c(=O)c(=O)n(C[C@H](O)[C@H](O)[C@H](O)CO)c2cc(C)c(C)cc21 [Compound 7, ethyl 2-(6,7-dimethyl-2,3-dioxo-4-((2S,3S,4R)-2,3,4,5-tetrahydroxypentyl)-3,4-dihydroquinoxalin-1(2H)-yl)acetate]",16 mg/L,16 mg/L,–
"Cc1cc2c3c(c1C)C(C)(C)CCn3c(=O)c(=O)n2C[C@H](O)[C@H](O)[C@H](O)CO [Huanamycin A, 7,7,8,9-tetramethyl-1-((2S,3S,4R)-2,3,4,5-tetrahydroxypentyl)-6,7-dihydro-1H,5H-4l4,41l5-4,41-methanopyrido[3,2,1-ij]quinoxaline-2,3-dione, reference compound]",8 mg/L,–,8 mg/L
"Cc1cc2c(cc1C)n(C[C@H](O)[C@H](O)[C@H](O)CO)c(=O)c(=O)n2CCC1CCCCC1 [Compound 10, 1-(2-cyclohexylethyl)-6,7-dimethyl-4-((2S,3S,4R)-2,3,4,5-tetrahydroxypentyl)-1,4-dihydroquinoxaline-2,3-dione]",8 mg/L,8 mg/L,–
"Cc1cc2c(cc1C)n(C[C@H](O)[C@H](O)[C@H](O)CO)c(=O)c(=O)n2Cc1ccccc1 [Compound 8, 1-benzyl-6,7-dimethyl-4-((2S,3S,4R)-2,3,4,5-tetrahydroxypentyl)-1,4-dihydroquinoxaline-2,3-dione]",>32 mg/L,> 32 mg/L,–
"Cc1cc2[nH]c(=O)c(=O)n(C[C@H](O)[C@H](O)[C@H](O)CO)c2cc1C [Compound 2, 6,7-dimethyl-1-((2S,3S,4R)-2,3,4,5-tetrahydroxypentyl)-1,4-dihydroquinoxaline-2,3-dione]",>32 mg/L,> 32 mg/L,–
"Cc1cc2c(cc1C)n(C[C@H](O)[C@H](O)[C@H](O)CO)c(=O)c(=O)n2CC=C1CCCCC1 [Compound 6, 1-(2-cyclohexylideneethyl)-6,7-dimethyl-4-((2S,3S,4R)-2,3,4,5-tetrahydroxypentyl)-1,4-dihydroquinoxaline-2,3-dione]",>32 mg/L,> 32 mg/L,–
